# Assays:
# SETVI = experiment: Post-emergence herbicidal action against SETVI; assay type: in vivo, Setaria viridis; conditions: application rate 80 g/ha, rated visually after about 3 weeks
# In short: (§1)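 Greenhouse post-emergence test: compound sprayed onto green plant parts at one-leaf stage as WP or EC preparation with 0.5% additive, water rate 600 l/ha. Percent activity scored by eye after roughly 3 weeks, where 0% matches controls and 100% means death.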
# MATIN = experiment: Post-emergence herbicidal action against MATIN; assay type: in vivo, Matricaria inodora; conditions: application rate 80 g/ha, rated visually about 3 weeks after treatment
# In short: as §1
# VERPE = experiment: Post-emergence herbicidal action against VERPE; assay type: in vivo, Veronica persica; conditions: application rate 80 g/ha
# In short: as §1
# VIOTR = experiment: Post-emergence herbicidal action against VIOTR; assay type: in vivo, Viola tricolor; conditions: application rate 80 g/ha, rated visually about 3 weeks after treatment
# In short: as §1
# ABUTH = experiment: Post-emergence herbicidal action against ABUTH; assay type: in vivo, Abutilon theophrasti; conditions: application rate 80 g/ha, rated visually about 3 weeks after treatment
# In short: as §1
# ALOMY = experiment: Post-emergence herbicidal action against ALOMY; assay type: in vivo, Alopecurus myosuroides; conditions: application rate 80 g/ha, rated visually after about 3 weeks
# In short: as §1
# AVEFA = experiment: Post-emergence herbicidal action against AVEFA; assay type: in vivo, Avena fatua; conditions: application rate 80 g/ha, rated visually after about 3 weeks
# In short: as §1
# ECHCG = experiment: Post-emergence herbicidal action against ECHCG; assay type: in vivo, Echinochloa crus-galli; conditions: application rate 80 g/ha, rated visually after about 3 weeks
# In short: as §1
# HORMU = experiment: Post-emergence herbicidal action against HORMU; assay type: in vivo, Hordeum murinum; conditions: application rate 80 g/ha
# In short: as §1
# STEME = experiment: Post-emergence herbicidal action against STEME; assay type: in vivo, Stellaria media; conditions: application rate 80 g/ha, rated visually about 3 weeks after treatment
# In short: as §1
# LOLRI = experiment: Post-emergence herbicidal action against LOLRI; assay type: in vivo, Lolium rigidum; conditions: application rate 80 g/ha, rated visually after about 3 weeks
# In short: as §1
# PHBPU = experiment: Post-emergence herbicidal action against PHBPU; assay type: in vivo, Pharbitis purpurea; conditions: application rate 80 g/ha, rated visually about 3 weeks after treatment
# In short: as §1
# AMARE = experiment: Post-emergence herbicidal action against AMARE; assay type: in vivo, Amaranthus retroflexus; conditions: application rate 80 g/ha, rated visually about 3 weeks after treatment
# In short: as §1
# POLCO = experiment: Post-emergence herbicidal action against POLCO; assay type: in vivo, Polygonum convolvulus; conditions: application rate 80 g/ha, rated visually about 3 weeks after treatment
# In short: as §1
compound,measurement,setting,value
CCOC(=O)[C@@H]1C=C[C@H](NC(=O)C2(OC)CC(c3cc(F)cc(F)c3)=NO2)C1 (stereo partly shown) [Example I-020],Herbicidal action against [%] SETVI,SETVI,90%
same,Herbicidal action against [%] MATIN,MATIN,90%
same,Herbicidal action against [%] VERPE,VERPE,90%
same,Herbicidal action against [%] VIOTR,VIOTR,100%
same,Herbicidal action against [%] ABUTH,ABUTH,80%
same,Herbicidal action against [%] ALOMY,ALOMY,90%
same,Herbicidal action against [%] AVEFA,AVEFA,100%
same,Herbicidal action against [%] ECHCG,ECHCG,80%
same,Herbicidal action against [%] HORMU,HORMU,80%
same,Herbicidal action against [%] STEME,STEME,80%
same,Herbicidal action against [%] LOLRI,LOLRI,90%
same,Herbicidal action against [%] PHBPU,PHBPU,80%
same,Herbicidal action against [%] AMARE,AMARE,100%
CC(C)OC(=O)C1C=CC(NC(=O)C2(C(F)(F)F)CC(c3cc(F)cc(F)c3)=NO2)C1 (mixture of isomers) [Example I-064],Herbicidal action against [%] SETVI,SETVI,90%
same,Herbicidal action against [%] MATIN,MATIN,90%
same,Herbicidal action against [%] VERPE,VERPE,80%
same,Herbicidal action against [%] VIOTR,VIOTR,80%
same,Herbicidal action against [%] ABUTH,ABUTH,80%
same,Herbicidal action against [%] ALOMY,ALOMY,90%
same,Herbicidal action against [%] AVEFA,AVEFA,100%
same,Herbicidal action against [%] ECHCG,ECHCG,90%
same,Herbicidal action against [%] POLCO,POLCO,90%
same,Herbicidal action against [%] HORMU,HORMU,90%
same,Herbicidal action against [%] STEME,STEME,80%
same,Herbicidal action against [%] LOLRI,LOLRI,100%
same,Herbicidal action against [%] PHBPU,PHBPU,80%
same,Herbicidal action against [%] AMARE,AMARE,90%
O=C(OCCCl)C1C=CC(NC(=O)C2(C(F)(F)F)CC(c3cc(F)cc(F)c3)=NO2)C1 (mixture of isomers) [Example I-067],Herbicidal action against [%] SETVI,SETVI,90%
same,Herbicidal action against [%] MATIN,MATIN,80%
same,Herbicidal action against [%] VERPE,VERPE,80%
same,Herbicidal action against [%] VIOTR,VIOTR,80%
same,Herbicidal action against [%] ABUTH,ABUTH,80%
same,Herbicidal action against [%] ALOMY,ALOMY,90%
same,Herbicidal action against [%] AVEFA,AVEFA,100%
same,Herbicidal action against [%] ECHCG,ECHCG,90%
same,Herbicidal action against [%] POLCO,POLCO,90%
same,Herbicidal action against [%] HORMU,HORMU,90%
same,Herbicidal action against [%] STEME,STEME,90%
same,Herbicidal action against [%] LOLRI,LOLRI,90%
same,Herbicidal action against [%] PHBPU,PHBPU,80%
same,Herbicidal action against [%] AMARE,AMARE,80%
CCOC(=O)[C@@H]1C=C[C@H](NC(=O)C2(C(F)(F)F)CC(c3cc(C)cc(Cl)c3)=NO2)C1 (stereo partly shown) [Example I-023],Herbicidal action against [%] SETVI,SETVI,90%
same,Herbicidal action against [%] MATIN,MATIN,90%
same,Herbicidal action against [%] VERPE,VERPE,90%
same,Herbicidal action against [%] VIOTR,VIOTR,80%
same,Herbicidal action against [%] ABUTH,ABUTH,80%
same,Herbicidal action against [%] ALOMY,ALOMY,90%
same,Herbicidal action against [%] AVEFA,AVEFA,90%
same,Herbicidal action against [%] ECHCG,ECHCG,80%
same,Herbicidal action against [%] POLCO,POLCO,100%
same,Herbicidal action against [%] HORMU,HORMU,80%
same,Herbicidal action against [%] LOLRI,LOLRI,90%
same,Herbicidal action against [%] PHBPU,PHBPU,80%
same,Herbicidal action against [%] AMARE,AMARE,90%
C=CC1(C(=O)N[C@H]2C=C[C@@H](C(=O)OCC(F)F)C2)CC(c2cc(F)cc(F)c2)=NO1 (stereo partly shown) [Example I-016],Herbicidal action against [%] SETVI,SETVI,90%
same,Herbicidal action against [%] MATIN,MATIN,80%
same,Herbicidal action against [%] VERPE,VERPE,90%
same,Herbicidal action against [%] VIOTR,VIOTR,80%
same,Herbicidal action against [%] ABUTH,ABUTH,90%
same,Herbicidal action against [%] ALOMY,ALOMY,100%
same,Herbicidal action against [%] AVEFA,AVEFA,90%
same,Herbicidal action against [%] ECHCG,ECHCG,100%
same,Herbicidal action against [%] POLCO,POLCO,90%
same,Herbicidal action against [%] HORMU,HORMU,90%
same,Herbicidal action against [%] STEME,STEME,100%
same,Herbicidal action against [%] LOLRI,LOLRI,100%
same,Herbicidal action against [%] AMARE,AMARE,90%
Cc1cc(Cl)cc(C2=NOC(C(=O)N[C@H]3C=C[C@@H](C(=O)OCCCl)C3)(C(F)(F)F)C2)c1 (stereo partly shown) [Example I-028],Herbicidal action against [%] SETVI,SETVI,90%
same,Herbicidal action against [%] MATIN,MATIN,80%
same,Herbicidal action against [%] VERPE,VERPE,80%
same,Herbicidal action against [%] VIOTR,VIOTR,80%
same,Herbicidal action against [%] ABUTH,ABUTH,80%
same,Herbicidal action against [%] ALOMY,ALOMY,90%
same,Herbicidal action against [%] AVEFA,AVEFA,100%
same,Herbicidal action against [%] ECHCG,ECHCG,80%
same,Herbicidal action against [%] POLCO,POLCO,100%
same,Herbicidal action against [%] HORMU,HORMU,80%
same,Herbicidal action against [%] STEME,STEME,80%
same,Herbicidal action against [%] LOLRI,LOLRI,90%
same,Herbicidal action against [%] AMARE,AMARE,90%
C[C@]1(C(=O)N[C@@H]2C=C(C(=O)O)CC2)CC(c2cc(F)cc(F)c2)=NO1 [Example V-01],Herbicidal action against [%] SETVI,SETVI,80%
same,Herbicidal action against [%] MATIN,MATIN,80%
same,Herbicidal action against [%] VERPE,VERPE,80%
same,Herbicidal action against [%] VIOTR,VIOTR,90%
same,Herbicidal action against [%] ABUTH,ABUTH,80%
same,Herbicidal action against [%] ALOMY,ALOMY,100%
same,Herbicidal action against [%] ECHCG,ECHCG,90%
same,Herbicidal action against [%] POLCO,POLCO,90%
same,Herbicidal action against [%] HORMU,HORMU,90%
same,Herbicidal action against [%] STEME,STEME,90%
same,Herbicidal action against [%] LOLRI,LOLRI,100%
same,Herbicidal action against [%] PHBPU,PHBPU,90%
same,Herbicidal action against [%] AMARE,AMARE,80%
CCOCCOC(=O)[C@@H]1C=C[C@H](NC(=O)[C@@]2(C(F)(F)F)CC(c3cc(F)cc(F)c3)=NO2)C1 [Example I-077],Herbicidal action against [%] SETVI,SETVI,80%
same,Herbicidal action against [%] MATIN,MATIN,80%
same,Herbicidal action against [%] VERPE,VERPE,90%
same,Herbicidal action against [%] VIOTR,VIOTR,80%
same,Herbicidal action against [%] ALOMY,ALOMY,90%
same,Herbicidal action against [%] AVEFA,AVEFA,100%
same,Herbicidal action against [%] ECHCG,ECHCG,80%
same,Herbicidal action against [%] POLCO,POLCO,80%
same,Herbicidal action against [%] HORMU,HORMU,90%
same,Herbicidal action against [%] STEME,STEME,80%
same,Herbicidal action against [%] LOLRI,LOLRI,90%
same,Herbicidal action against [%] PHBPU,PHBPU,80%
same,Herbicidal action against [%] AMARE,AMARE,80%
CCOC(=O)C1C=CC(NC(=O)C2(C(F)(F)F)CC(c3cc(F)cc(C#N)c3)=NO2)C1 (mixture of isomers) [Example I-071],Herbicidal action against [%] SETVI,SETVI,90%
same,Herbicidal action against [%] MATIN,MATIN,80%
same,Herbicidal action against [%] VERPE,VERPE,80%
same,Herbicidal action against [%] VIOTR,VIOTR,80%
same,Herbicidal action against [%] ABUTH,ABUTH,80%
same,Herbicidal action against [%] ALOMY,ALOMY,90%
same,Herbicidal action against [%] AVEFA,AVEFA,100%
same,Herbicidal action against [%] ECHCG,ECHCG,90%
same,Herbicidal action against [%] POLCO,POLCO,90%
same,Herbicidal action against [%] HORMU,HORMU,90%
same,Herbicidal action against [%] STEME,STEME,90%
same,Herbicidal action against [%] LOLRI,LOLRI,90%
same,Herbicidal action against [%] AMARE,AMARE,80%
COC(=O)[C@@H]1C=C[C@H](NC(=O)C2(OC)CC(c3cc(F)cc(F)c3)=NO2)C1 (stereo partly shown) [Example I-019],Herbicidal action against [%] SETVI,SETVI,90%
same,Herbicidal action against [%] MATIN,MATIN,90%
same,Herbicidal action against [%] VERPE,VERPE,90%
same,Herbicidal action against [%] VIOTR,VIOTR,80%
same,Herbicidal action against [%] ABUTH,ABUTH,80%
same,Herbicidal action against [%] ALOMY,ALOMY,90%
same,Herbicidal action against [%] AVEFA,AVEFA,100%
same,Herbicidal action against [%] ECHCG,ECHCG,80%
same,Herbicidal action against [%] POLCO,POLCO,100%
same,Herbicidal action against [%] HORMU,HORMU,90%
same,Herbicidal action against [%] STEME,STEME,90%
same,Herbicidal action against [%] LOLRI,LOLRI,90%
same,Herbicidal action against [%] AMARE,AMARE,90%
COC(=O)C1C=CC(NC(=O)C2(C(F)(F)F)CC(c3cc(C)cc(C)c3)=NO2)C1 (mixture of isomers) [Example I-055],Herbicidal action against [%] SETVI,SETVI,90%
same,Herbicidal action against [%] MATIN,MATIN,80%
same,Herbicidal action against [%] VERPE,VERPE,80%
same,Herbicidal action against [%] VIOTR,VIOTR,90%
same,Herbicidal action against [%] ABUTH,ABUTH,80%
same,Herbicidal action against [%] ALOMY,ALOMY,90%
same,Herbicidal action against [%] AVEFA,AVEFA,80%
same,Herbicidal action against [%] ECHCG,ECHCG,90%
same,Herbicidal action against [%] POLCO,POLCO,90%
same,Herbicidal action against [%] HORMU,HORMU,90%
same,Herbicidal action against [%] STEME,STEME,90%
same,Herbicidal action against [%] LOLRI,LOLRI,90%
same,Herbicidal action against [%] AMARE,AMARE,80%

# From patent publication US12319664B2, “Herbicidally active 3-phenylisoxazoline-5-carboxamides of cyclopentenylcarboxylic acid derivatives” (Bayer Aktiengesellschaft, priority 2018, dated 2025)
